Reference: the supplement of paper PMC10949913

Key:
Conditions in all cases: 48 h
NCI-H295R [1] = assay: AC50 viability; higher = less potent
Outline: (§1)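 Three adrenocortical carcinoma cell lines were exposed for 48 h to library compounds at 11 concentrations in 1,536-well plates, then read by CellTiter-Glo luminescence. Signals were scaled per plate against vehicle and empty-well controls. From fitted concentration-response curves of inhibitory or non-responding classes alone, AC50 and area under the curve were obtained.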

NCI-H295R [2] = assay: area under concentration-response curve (viability) (AUC (a.u.)); higher = less active
Outline: as §1

CU-ACC1 = assay: as above
Outline: as §1

CU-ACC2 = assay: as above
Outline: as §1

Structure (SMILES)	AC50 viability (NCI-H295R [1])	area under concentration-response curve (NCI-H295R [2])	area under concentration-response curve (CU-ACC1)	area under concentration-response curve (CU-ACC2)
NCC(=O)Nc1ccc(-n2nc(C(F)(F)F)cc2-c2ccc3c(ccc4ccccc43)c2)cc1	23.5 µM	551	–	–
CCN(C)[S+](=O)([O-])Nc1ccc(F)c(C(=O)c2c[nH]c3ncc(-c4cnc(C5CC5)nc4)cc23)c1F	18.6 µM	502	–	–
CCN(CC)C(=O)C1=CC=C(C=C1)C/2=C/C3(CCNCC3)OC4=CC=CC(=C24)O	20.9 µM	404	–	–
CC(C)[C@](O)(c1ccc2cc(OC(F)F)c(OC(F)F)cc2c1)c1c[nH]nn1	23.5 µM	532	492	–
COc1cc(Nc2ncc(F)c(Nc3ccc4c(n3)N(COP(=O)(O)O)C(=O)C(C)(C)O4)n2)cc(OC)c1OC	14.8 µM	512	–	–
CC[C@H](C)[C@@H]([C@@H](CC(=O)N1CCC[C@H]1[C@H](OC)[C@@H](C)C(=O)N[C@@H](Cc1ccccc1)c1nccs1)OC)N(C)C(=O)[C@@H](NC(=O)[C@H](C(C)C)N(C)C)C(C)C	33.2 µM	344	–	363
CC1(C)C(=O)N(c2ccc(C#N)c(C(F)(F)F)c2)C(=S)N1Cc1ccc(-c2c[nH]nn2)cc1	20.9 µM	483	472	–
C[C@@H]1C[C@H]2[C@@H]3CC\C4=C\C(=O)\C=C/[C@]4(C)[C@@]3(Cl)[C@@H](O)C[C@]2(C)[C@@]1(OC(=O)C5=CC=CO5)C(=O)CCl	37.2 µM	580	–	–
CCOC(=O)[C@@H](N)Cc1ccc(-c2cc(O[C@H](c3ccc(Cl)cc3-n3ccc(C)n3)C(F)(F)F)nc(N)n2)cc1	20.9 µM	506	–	–
Cc1ccc(Sc2ccccc2N2CCNCC2)c(C)c1	20.9 µM	455	–	–
Cc1ccc([C@@H]2O[C@H](CO)[C@@H](O)[C@H](O)[C@H]2O)cc1Cc1ccc(-c2ccc(F)cc2)s1	23.5 µM	521	–	–
O=C(c1ccc(OCCN2CCCCC2)cc1)c1c(-c2ccc(O)cc2)sc2cc(O)ccc12	23.5 µM	557	–	–
CCNC(=O)Nc1ccc(-c2nc3c(c(N4CCOC[C@@H]4C)n2)CCN(C2COC2)C3)cc1	4.68 µM	520	–	561
COC(=O)Nc1nc2cc([S+]([O-])c3ccccc3)ccc2[nH]1 (centres undefined)	11.8 µM	522	–	–
Cc1cncc2cccc([S+](=O)([O-])N3CCCN(C(=O)CN)C[C@@H]3C)c12	16.6 µM	433	465	–
COc1c(C)c2c(c(O)c1C/C=C(\C)CCC(=O)OCCN1CCOCC1)C(=O)OC2	0.468 µM	429	–	–

Structure (SMILES)	AC50 viability (NCI-H295R [1])	area under concentration-response curve (NCI-H295R [2])	area under concentration-response curve (CU-ACC1)	area under concentration-response curve (CU-ACC2)
C[C@@H]1CCNC(=O)c2cc3ccc(C(=O)Nc4nc5ccccc5n4CCCN(C)C)cc3n21	18.6 µM	553	513	–
CCN(CC)CCCCNc1ncc2cc(-c3cc(OC)cc(OC)c3)c(NC(=O)NC(C)(C)C)nc2n1	23.5 µM	476	–	–
CSc1ccc(C(=O)/C=C/c2cc(C)c(OC(C)(C)C(=O)O)c(C)c2)cc1	48.1 µM	571	540	–
Cc1ncc(NC(=O)c2ccc(CN3CCN(C)CC3)c(C(F)(F)F)c2)cc1Nc1nccc(-c2cccnc2)n1	23.5 µM	493	–	–
CC(=O)N1CCN(c2ccc(OC[C@H]3CO[C@](Cn4ccnc4)(c4ccc(Cl)cc4Cl)O3)cc2)CC1	20.9 µM	342	–	–
CCOc1cc2c(c(F)c1OCC)C(=N)N(CC(=O)c1cc(N3CCOCC3)c(OC)c(C(C)(C)C)c1)C2	20.9 µM	492	–	–
COc1ccc(C(=O)c2c(C)n(CCN3CCOCC3)c3cc(I)ccc23)cc1	8.33 µM	392	317	–
CCCCc1oc2ccccc2c1C(=O)c1cc(I)c(OCCN(CC)CC)c(I)c1	23.5 µM	479	–	–
CN(C)CC[C@H](CSc1ccccc1)Nc1ccc([S+](=O)([O-])NC(=O)c2ccc(N3CCN(Cc4ccccc4-c4ccc(Cl)cc4)CC3)cc2)cc1[N+](=O)[O-]	18.6 µM	535	–	–
O=C(Nc1nc2cccc(-c3ccc(CN4CC[S+](=O)([O-])CC4)cc3)n2n1)C1CC1	18.6 µM	535	–	–
CN(C)CC(=O)N1CCC(CC1)C2=CC=C(NC(=O)C3=NC(=C[NH]3)C#N)C(=C2)\C4=C\CCCC4	23.5 µM	553	–	–
Oc1ccc(-c2nc(-c3ccncc3)c(-c3ccc(F)cc3)[nH]2)cc1	–	475	493	574
CCOC(=O)C(C)OC1=CC=CC2=C1\C=C/N(CC(=O)NC3=CC=C4OCCOC4=C3)C2=O (centres undefined)	–	538	505	602
OC(=O)\C1=C\N(C2CC2)C3=CC(=C(F)C=C3C1=O)N4CCNCC4	–	561	571	693
CCN(CC)CCCCNc1ncc2c(n1)N(C)C(=O)N(c1c(Cl)c(OC)cc(OC)c1Cl)C2	16.6 µM	524	520	–
